From patent publication US20250152591A1, “TREATMENT OF HEMATOLOGICAL MALIGNANCIES WITH MENIN INHIBITORS AND P-GLYCOPROTEIN INHIBITORS” (Kura Oncology, Inc., priority 2022, published 2025)

Target: T1, Menin (Homo sapiens, UniProt O00255)
T1 sequence (O00255 1-610): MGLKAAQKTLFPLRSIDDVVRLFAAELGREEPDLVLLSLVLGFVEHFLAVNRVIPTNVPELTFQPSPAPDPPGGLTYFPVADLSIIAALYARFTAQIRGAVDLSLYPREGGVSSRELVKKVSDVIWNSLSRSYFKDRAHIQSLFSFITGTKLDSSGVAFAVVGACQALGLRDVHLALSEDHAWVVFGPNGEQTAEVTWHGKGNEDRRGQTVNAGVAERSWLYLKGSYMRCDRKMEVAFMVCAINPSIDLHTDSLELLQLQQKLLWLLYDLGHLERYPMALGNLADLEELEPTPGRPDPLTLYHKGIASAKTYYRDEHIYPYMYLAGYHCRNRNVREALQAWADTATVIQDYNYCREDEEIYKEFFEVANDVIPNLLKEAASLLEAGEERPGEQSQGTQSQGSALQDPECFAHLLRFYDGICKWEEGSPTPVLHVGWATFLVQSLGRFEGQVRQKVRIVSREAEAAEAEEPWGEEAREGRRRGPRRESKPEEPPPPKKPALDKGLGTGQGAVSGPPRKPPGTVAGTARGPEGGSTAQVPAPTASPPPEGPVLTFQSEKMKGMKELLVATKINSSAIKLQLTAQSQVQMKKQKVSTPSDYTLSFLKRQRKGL
Assay: Menin binding, fluorescence polarization assay
Details: fluorescence polarization assay analogous to WO2017/161028, Example 6
Experimental: Menin binding was evaluated using an assay analogous to the fluorescence polarization assay described in PCT Publ. No. WO2017/161028, Example 6.

| IC50 [nM] | SMILES |
| --- | --- |
| 401 | CNc1nc(NC2CCN(Cc3ccc4c(cc(C#N)n4C[C@H](C)N4CCN(S(C)(=O)=O)CC4)c3C)CC2)c2cc([C@H](O)C(F)(F)F)sc2n1 [Compound IC, 4-methyl-5-((4-((2-(methylamino)-6-((R)-2,2,2-trifluoro-1-hydroxyethyl)thieno[2,3-d]pyrimidin-4-yl)amino)piperidin-1-yl)methyl)-1-((S)-2-(4-(methylsulfonyl)piperazin-1-yl)propyl)-1H-indole-2-carbonitrile] |
| 36.2 | Cc1c(CN2CCC(Nc3nc(N)nc4sc(CC(F)(F)F)cc34)CC2)ccc2c1cc(C#N)n2C[C@H](C)N1CCN(S(C)(=O)=O)CC1 [Compound IA] |
| 63.5 | CNc1nc(NC2CCN(Cc3ccc4c(cc(C#N)n4C[C@H](C)N4CCN(S(C)(=O)=O)CC4)c3C)CC2)c2cc([C@@H](O)C(F)(F)F)sc2n1 [Compound IB, 4-methyl-5-((4-((2-(methylamino)-6-((S)-2,2,2-trifluoro-1-hydroxyethyl)thieno[2,3-d]pyrimidin-4-yl)amino)piperidin-1-yl)methyl)-1-((S)-2-(4-(methylsulfonyl)piperazin-1-yl)propyl)-1H-indole-2-carbonitrile] |
